Results on six compounds are retold here after patent US20260297060A1, “COMPOUNDS FOR THE DEGRADATION OF MUTANT BRAF” (C4 THERAPEUTICS, INC., priority 2023, published 2026).

A short description of this data set: Example 9 pharmacokinetics assay for the PK and PD study Part I, II and III (plasma, tumor, liver). Type of data set: in vivo, BALB/c nude mice. The conditions noted are these: mouse, po, 10 mg/kg, p.o., single dose, ± SEM. The procedure:
For the PK and PD study Part I, agents were administered to BALB/c nude mice bearing A375 human melanoma xenografts tumors. Dabrafenib, Compound 218 and Compound 157 were dosed via p.o. once on day 1. Dabrafenib was dosed at 100 mg/kg. Compound 218 and Compound 157 were dosed at 10 mg/kg.
For the PK and PD study Part II, agents were administered to BALB/c nude mice bearing A375 human melanoma xenografts tumors. Compound 133, Compound 144 and Compound 198 were dosed at 10 mg/kg via p.o. once on day 1.
For the PK and PD study Part III, agent was administered to BALB/c nude mice bearing A375 human melanoma xenografts tumors. Compound 204 were dosed at 10 mg/kg via p.o. once on day 1.
The plasma samples were collected at predetermined time points for PK analysis. The mice were euthanized at predetermined time points post the treatment. The blood samples were collected into the 1.5 mL Eppendorf tubes containing 15 μL of 0.5 M EDTA-K2. And then the anticoagulant blood samples were centrifuged at 2,500 g at 4° C. for 15 minutes. The plasma samples were separated into 2 aliquots. The 1st was used for PK analysis, and the 2nd served as backup. The samples were stored at −80° C. before bioanalysis.
The tumor samples were collected at predetermined time points for PK and WB analysis. The tumor was dissected out and split into 3 parts. The 1st part was used for PK analysis, the 2nd part was used for WB analysis and the last one served as backup for study. The samples were transferred into pre-labeled tubes and quickly froze in liquid nitrogen within 2 minutes after dissection. The samples were stored at −80° C. before bioanalysis.
Liver samples were collected at predetermined time points for PK analysis. The left lobe of the liver was dissected out and split into 2 parts. The 1st part was used for PK analysis and the 2nd part served as the backup for the study. The samples were transferred into pre-labeled tubes and quickly froze in liquid nitrogen within 2 minutes after dissection. The samples were stored at −80° C. before bioanalysis.
The harvested plasma, tumor and liver samples were processed for pharmacokinetics analysis by LC-MS/MS with a concentration range of 5.00-10,000 ng/mL for Compound 218, Compound 157 and Compound 133 in plasma, 0.500-1,000 ng/ml for Compound 218 in liver and tumor homogenate, 0.200-400 ng/mL for Compound 157, Dabrafenib and Compound 133 in liver and tumor homogenate, 0.500-1000 ng/mL for Dabrafenib and Compound 204 in plasma, 0.200-200 ng/mL for Compound 204 in liver and tumor homogenate, 20.0-20,000 ng/mL for Compound 144 and Compound 198 in plasma, 1.00-1,000 ng/mL for Compound 144 and Compound 198 in liver and tumor homogenate.

Where [1] appears, read: liver, read-out: Mean Concentration in Liver.
[2] abbreviates: plasma, read-out: Mean Concentration in Plasma.
Where [3] appears, read: tumor, read-out: Mean Concentration in Tumor.

Where two headings read alike, the source gives them in different places.

As to `CCN(C)S(=O)(=O)Nc1ccc(F)c(Oc2ccc3ncn(C4CC5(C4)CN(C4CCC(c6cc7c(cc6F)c(N6CCC(=O)NC6=O)nn7C)CC4)C5)c(=O)c3c2)c1C#N` (single isomer, unassigned) [Compound 204, 6-[2-cyano-3-[[ethyl(methyl)sulfamoyl]amino]-6-fluoro-phenoxy]-3-[2-[4-[3-(2,4-dioxohexahydropyrimidin-1-yl)-5-fluoro-1-methyl-indazol-6-yl]cyclohexyl]-2-azaspiro[3.3]heptan-6-yl]-4-oxo-quinazoline], the concentration at 6 h was found to be 606 ± 73.4 ng/g under setting [1], 104 ± 6.18 ng/mL under setting [2] and 112 ± 11 ng/g under setting [3]. Moreover, the concentration at 12 h reads like this: under setting [1], 291 ± 103 ng/g; under setting [2], 32.9 ± 12.1 ng/mL; under setting [3], 45 ± 9.93 ng/g. Besides, the concentration at 1 h reads like this: under setting [2], 2070 ± 407 ng/mL; under setting [3], 74.7 ± 16.5 ng/g.
Turning to `CCN(C)S(=O)(=O)Nc1ccc(F)c(Oc2ccc3ncc(OC4CC5(CCN(C6CCC(c7cc8c(cc7F)c(N7CCC(=O)NC7=O)nn8C)CC6)CC5)C4)nc3c2)c1C#N` (single isomer, unassigned) [Compound 218, 7-[2-cyano-3-[[ethyl(methyl)sulfamoyl]amino]-6-fluoro-phenoxy]-2-[[7-[4-[3-(2,4-dioxohexahydropyrimidin-1-yl)-5-fluoro-1-methyl-indazol-6-yl]cyclohexyl]-7-azaspiro[3.5]nonan-2-yl]oxy]quinoxaline], under setting [1], the concentration at 6 h is 5710 ± 300 ng/g and the concentration at 12 h was found to be 972 ± 40.9 ng/g. Moreover, under setting [2], the concentration at 1 h came to 6310 ± 978 ng/mL, the concentration at 6 h was 1750 ± 96.1 ng/mL, the concentration at 12 h was determined as 206 ± 11.5 ng/mL and the concentration at 24 h is 6.2 ± 3.47 ng/mL. For the same compound, under setting [3], the concentration at 1 h worked out at 1850 ± 164 ng/g, the concentration at 6 h amounted to 1360 ± 21.9 ng/g, the concentration at 12 h was 268 ± 26.7 ng/g and the concentration at 24 h stood at 13.4 ± 4.31 ng/g.
On to `Cn1nc(N2CCC(=O)NC2=O)c2cc(F)c(N3CC4(CC(N5CCC6(CC5)C[C@@H](n5cnc7ccc(Oc8c(F)ccc(NS(=O)(=O)N9CC[C@@H](F)C9)c8C#N)cc7c5=O)CO6)C4)C3)cc21` [Compound 133, (3R)-N-[2-cyano-3-[3-[(3R)-8-[2-[3-(2,4-dioxohexahydropyrimidin-1-yl)-5-fluoro-1-methyl-indazol-6-yl]-2-azaspiro[3.3]heptan-6-yl]-1-oxa-8-azaspiro[4.5]decan-3-yl]-4-oxo-quinazolin-6-yl]oxy-4-fluoro-phenyl]-3-fluoro-pyrrolidine-1-sulfonamide], for which, under setting [1], the concentration at 6 h turned out to be 2030 ± 179 ng/g and the concentration at 12 h was found to be 503 ± 207 ng/g. Under setting [2], the concentration at 1 h came out at 8880 ± 604 ng/mL, the concentration at 6 h is 3460 ± 69.8 ng/mL, the concentration at 12 h is 733 ± 348 ng/mL and the concentration at 24 h was 23.4 ± 5.56 ng/mL. Under setting [3], the concentration at 1 h was 764 ± 122 ng/g, the concentration at 6 h was found to be 686 ± 6.23 ng/g, the concentration at 12 h amounted to 316 ± 172 ng/g and the concentration at 24 h worked out at 41.7 ± 26.4 ng/g.
For the compound `CO[C@@H]1CCN(S(=O)(=O)Nc2ccc(F)c(Oc3ccc4ncn([C@H]5COC6(CCN(C7CC8(C7)CN(c7cc9c(cc7F)c(N7CCC(=O)NC7=O)nn9C)C8)CC6)C5)c(=O)c4c3)c2C#N)C1` [Compound 144, (3R)-N-[2-cyano-3-[3-[(3R)-8-[2-[3-(2,4-dioxohexahydropyrimidin-1-yl)-5-fluoro-1-methyl-indazol-6-yl]-2-azaspiro[3.3]heptan-6-yl]-1-oxa-8-azaspiro[4.5]decan-3-yl]-4-oxo-quinazolin-6-yl]oxy-4-fluoro-phenyl]-3-methoxy-pyrrolidine-1-sulfonamide], under setting [1], the concentration at 6 h amounted to 1890 ± 584 ng/g and the concentration at 12 h was 873 ± 234 ng/g. Under setting [2], the concentration at 1 h is 11600 ± 2260 ng/mL, the concentration at 6 h was found to be 6220 ± 1880 ng/mL, the concentration at 12 h is 1240 ± 395 ng/mL and the concentration at 24 h is 143 ± 15.4 ng/mL. Also, under setting [3], the concentration at 1 h was 946 ± 172 ng/g, the concentration at 6 h is 1180 ± 406 ng/g, the concentration at 12 h was 616 ± 127 ng/g and the concentration at 24 h amounted to 183 ± 45.4 ng/g.
For the compound `CO[C@H]1CCN(S(=O)(=O)Nc2ccc(F)c(Oc3ccc4ncn([C@H]5COC6(CCN(C7CC8(C7)CN(c7cc9c(cc7F)c(N7CCC(=O)NC7=O)nn9C)C8)CC6)C5)c(=O)c4c3)c2C#N)C1` [Compound 157, (3S)-N-[2-cyano-3-[3-[(3R)-8-[2-[3-(2,4-dioxohexahydropyrimidin-1-yl)-5-fluoro-1-methyl-indazol-6-yl]-2-azaspiro[3.3]heptan-6-yl]-1-oxa-8-azaspiro[4.5]decan-3-yl]-4-oxo-quinazolin-6-yl]oxy-4-fluoro-phenyl]-3-methoxy-pyrrolidine-1-sulfonamide], under setting [1], the concentration at 6 h was 2000 ± 132 ng/g and the concentration at 12 h stood at 1320 ± 233 ng/g. Also, under setting [2], the concentration at 1 h was determined as 14700 ± 2000 ng/mL, the concentration at 6 h is 14700 ± 1560 ng/mL, the concentration at 12 h is 5420 ± 1400 ng/mL and the concentration at 24 h stood at 161 ± 40.1 ng/mL. For the same compound, under setting [3], the concentration at 1 h was determined as 1460 ± 376 ng/g, the concentration at 6 h was 1990 ± 120 ng/g, the concentration at 12 h stood at 1470 ± 329 ng/g and the concentration at 24 h came to 183 ± 137 ng/g.
For the compound `CCN(C)S(=O)(=O)Nc1ccc(F)c(Oc2ccc3ncn(C4CC5(CCN(C6CC7(CCN(c8cc9c(cc8F)c(N8CCC(=O)NC8=O)nn9C)CC7)C6)CC5)C4)c(=O)c3c2)c1C#N` (stereo not shown) [Compound 198, 6-[2-cyano-3-[[ethyl(methyl)sulfamoyl]amino]-6-fluoro-phenoxy]-3-[7-[7-[3-(2,4-dioxohexahydropyrimidin-1-yl)-5-fluoro-1-methyl-indazol-6-yl]-7-azaspiro[3.5]nonan-2-yl]-7-azaspiro[3.5]nonan-2-yl]-4-oxo-quinazoline], under setting [1], the concentration at 6 h is 2240 ± 416 ng/g and the concentration at 12 h came to 1020 ± 177 ng/g. Under setting [2], the concentration at 1 h is 2430 ± 91.7 ng/mL, the concentration at 6 h is 2670 ± 117 ng/mL, the concentration at 12 h was determined as 1700 ± 172 ng/mL and the concentration at 24 h turned out to be 573 ± 94.2 ng/mL. Further, under setting [3], the concentration at 1 h turned out to be 441 ± 38.8 ng/g, the concentration at 6 h was determined as 1120 ± 28.5 ng/g, the concentration at 12 h turned out to be 776 ± 107 ng/g and the concentration at 24 h was determined as 383 ± 128 ng/g.
